Legend:
JAK3 = JAK3 (Homo sapiens (Human), UniProt P52333); test: JAK3 enzyme assay (Assay Example^b 1)
Tyk2 = Tyk2 (Homo sapiens (Human), UniProt P29597); test: Tyk2 enzyme assay (Assay Example^b 1)
JAK1 = JAK1 (Homo sapiens (Human), UniProt P23458); test: JAK1 enzyme assay (Assay Example^b 1)
JAK2 = JAK2 (Homo sapiens (Human), UniProt O60674); test: JAK2 enzyme assay (Assay Example^b 1)
[1] = clinical tests; cited from earlier work
[2] = murine asthma model; cited from earlier work
[3] = clinical tests; cited from earlier work; remark: listed apart in the source
[4] = monkey model of kidney transplantation; cited from earlier work
[5] = IC50 (μM) JAK3, Table^b 80, ATP 100 μM
[6] = IC50 (μM) TYK2, Table^b 80, ATP 100 μM
[7] = IC50 (μM) JAK1, Table^b 80, ATP 100 μM
[8] = IC50 (μM) JAK2, Table^b 80, ATP 100 μM
[9] = IC50 (μM) JAK3, Table^b 78, ATP 100 μM
[10] = IC50 (μM) TYK2, Table^b 79, ATP 100 μM
[11] = IC50 (μM) JAK1, Table^b 78, ATP 100 μM
[12] = IC50 (μM) JAK2, Table^b 79, ATP 100 μM

Sequence of JAK3 (P52333 whole entry): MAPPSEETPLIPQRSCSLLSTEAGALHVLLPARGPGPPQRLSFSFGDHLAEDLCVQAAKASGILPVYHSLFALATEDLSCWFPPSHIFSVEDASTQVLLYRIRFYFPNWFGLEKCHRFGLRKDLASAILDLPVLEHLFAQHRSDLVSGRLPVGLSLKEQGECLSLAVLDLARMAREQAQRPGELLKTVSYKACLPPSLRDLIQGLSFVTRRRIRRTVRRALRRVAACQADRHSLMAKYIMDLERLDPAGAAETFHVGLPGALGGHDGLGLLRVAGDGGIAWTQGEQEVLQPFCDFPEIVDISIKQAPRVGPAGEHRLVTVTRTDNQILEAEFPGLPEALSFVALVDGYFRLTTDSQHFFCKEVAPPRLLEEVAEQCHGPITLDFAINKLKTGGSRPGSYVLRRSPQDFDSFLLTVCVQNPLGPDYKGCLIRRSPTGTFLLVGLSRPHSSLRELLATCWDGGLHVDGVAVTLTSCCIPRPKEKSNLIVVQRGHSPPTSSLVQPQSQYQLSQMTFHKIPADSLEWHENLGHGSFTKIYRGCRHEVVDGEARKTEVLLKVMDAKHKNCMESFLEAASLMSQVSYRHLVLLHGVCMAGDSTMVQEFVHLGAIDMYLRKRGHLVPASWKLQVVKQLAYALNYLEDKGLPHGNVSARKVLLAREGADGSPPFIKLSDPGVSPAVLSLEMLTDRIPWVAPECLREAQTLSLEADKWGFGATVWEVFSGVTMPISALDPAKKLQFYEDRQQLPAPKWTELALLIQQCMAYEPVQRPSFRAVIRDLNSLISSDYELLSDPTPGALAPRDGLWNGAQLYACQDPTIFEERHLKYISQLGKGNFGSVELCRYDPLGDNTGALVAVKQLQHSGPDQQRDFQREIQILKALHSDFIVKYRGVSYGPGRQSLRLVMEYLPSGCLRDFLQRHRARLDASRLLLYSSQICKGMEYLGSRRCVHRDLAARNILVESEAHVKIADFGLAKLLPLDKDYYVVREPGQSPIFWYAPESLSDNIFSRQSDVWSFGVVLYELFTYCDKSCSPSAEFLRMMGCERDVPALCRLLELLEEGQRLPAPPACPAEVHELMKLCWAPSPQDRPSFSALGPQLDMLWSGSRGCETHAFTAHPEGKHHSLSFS
Sequence of Tyk2 (P29597 whole entry): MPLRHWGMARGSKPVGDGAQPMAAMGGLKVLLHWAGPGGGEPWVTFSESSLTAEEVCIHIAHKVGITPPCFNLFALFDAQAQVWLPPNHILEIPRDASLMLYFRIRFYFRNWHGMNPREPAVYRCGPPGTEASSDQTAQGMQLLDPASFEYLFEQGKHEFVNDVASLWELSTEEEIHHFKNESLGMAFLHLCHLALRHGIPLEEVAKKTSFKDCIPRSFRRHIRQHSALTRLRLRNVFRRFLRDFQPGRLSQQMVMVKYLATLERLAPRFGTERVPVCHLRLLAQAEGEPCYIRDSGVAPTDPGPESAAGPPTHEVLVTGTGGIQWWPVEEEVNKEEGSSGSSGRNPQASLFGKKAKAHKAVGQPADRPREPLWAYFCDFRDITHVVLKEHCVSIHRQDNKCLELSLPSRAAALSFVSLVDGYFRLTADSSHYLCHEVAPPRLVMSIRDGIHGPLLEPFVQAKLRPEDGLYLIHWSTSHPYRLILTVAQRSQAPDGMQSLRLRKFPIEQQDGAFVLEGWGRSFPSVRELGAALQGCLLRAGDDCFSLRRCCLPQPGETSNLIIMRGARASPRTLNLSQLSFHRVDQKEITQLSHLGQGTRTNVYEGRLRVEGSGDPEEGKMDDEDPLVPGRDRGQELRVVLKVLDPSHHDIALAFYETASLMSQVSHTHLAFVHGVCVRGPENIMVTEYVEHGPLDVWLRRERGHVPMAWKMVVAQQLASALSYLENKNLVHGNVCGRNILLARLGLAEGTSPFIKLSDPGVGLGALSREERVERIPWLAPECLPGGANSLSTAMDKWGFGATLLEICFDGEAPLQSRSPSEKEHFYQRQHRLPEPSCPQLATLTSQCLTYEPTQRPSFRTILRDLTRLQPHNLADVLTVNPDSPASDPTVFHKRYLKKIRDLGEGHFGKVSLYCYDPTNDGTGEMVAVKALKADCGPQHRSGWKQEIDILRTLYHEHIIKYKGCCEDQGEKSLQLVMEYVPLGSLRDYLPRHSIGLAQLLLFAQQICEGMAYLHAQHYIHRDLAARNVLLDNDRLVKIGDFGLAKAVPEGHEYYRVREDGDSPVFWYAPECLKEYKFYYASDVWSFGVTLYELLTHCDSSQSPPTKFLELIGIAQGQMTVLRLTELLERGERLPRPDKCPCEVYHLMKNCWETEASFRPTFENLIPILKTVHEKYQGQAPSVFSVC

Structure (SMILES) | IC50 (JAK3; IC50 (μM) JAK3, ATP 100 μM) [µM] | IC50 (Tyk2; IC50 (μM) TYK2, ATP 100 μM) [µM] | IC50 (JAK1; IC50 (μM) JAK1, ATP 100 μM) [µM] | IC50 (JAK2; IC50 (μM) JAK2, ATP 100 μM) [µM] | IC50 (Tyk2; [6]) [µM] | IC50 (JAK1; [7]) [µM] | IC50 (JAK2; [8]) [µM] | also measured
O=c1ccn(C2C3CC4CC2CC(O)(C4)C3)c2c1cnc1[nH]ccc12 (stereo not shown) [compound 106] | 0.61 | 0.38 | 0.047 | 0.25 | – | – | – | –
O=C1NCc2cnc3[nH]ccc3c2N1C1CCN(S(=O)(=O)Cc2ccccc2)CC1 [compound 60] | – | – | – | – | > 1 | 0.35 | 0.48 | IC50 (JAK3; [5]): > 1 µM
Cn1c(=O)c2cnc3[nH]ccc3c2n(C2CCCCC2)c1=O [Synthetic Example^b 138, 1-cyclohexyl-3-methyl-1H-pyrrolo[3′,2′:5,6]pyrido[4,3-d]pyrimidine-2,4(3H,7H)-dione] | 0.51 | > 1 | 0.04 | 0.42 | – | – | – | –
C[C@@H]1CCN(Cc2cccc(C#N)c2)C[C@@H]1n1ccc(=O)c2cnc3[nH]ccc3c21 (racemic) [compound 42] | – | – | – | – | > 1 | 0.016 | 0.15 | IC50 (JAK3; [5]): 0.093 µM
O=c1ccn(C2CCN(Cc3ccc(C(F)(F)F)cc3)CC2)c2c1cnc1[nH]ccc12 [Synthetic Example^b 56, 1-{1-[4-(trifluoromethyl)benzyl]piperidin-4-yl}-1H-pyrrolo[2,3-h][1,6]naphthyridin-4(7H)-one] | – | – | – | – | > 1 | 0.019 | 0.24 | IC50 (JAK3; [5]): > 1 µM
O=C(Nc1nncs1)N1CCC(N2C(=O)NCc3cnc4[nH]ccc4c32)CC1 [compound 64] | – | – | – | – | 0.17 | 0.012 | 0.02 | –
C[C@@H]1CCN(Cc2ccccc2)C[C@@H]1n1ccc(=O)c2cnc3[nH]cc(Br)c3c21 (racemic) [compound 21] | – | – | – | – | > 1 | 0.56 | 1.3 | IC50 (JAK3; [5]): 0.82 µM
O=C(c1ccc(Cl)s1)N1CCC(n2ccc(=O)c3cnc4[nH]ccc4c32)CC1 [compound 87] | – | – | – | – | > 1 | 0.025 | 0.38 | IC50 (JAK3; [5]): > 1 µM
C[C@@H]1CCN(C(=O)CC#N)C[C@@H]1n1ccc(=O)c2cnc3[nH]ccc3c21 (racemic) [compound 7] | – | – | – | – | – | – | – | IC50 (JAK3; [9]): 0.0032 µM; IC50 (Tyk2; [10]): 0.06 µM; IC50 (JAK1; [11]): 0.0017 µM; IC50 (JAK2; [12]): 0.004 µM
O=c1[nH]c(=O)n(C2CCN(CCNC3CCNCC3)CC2)c2c1cnc1[nH]ccc12 [compound 111] | > 1 | > 1 | 0.44 | > 1 | – | – | – | –
O=c1[nH]c(=O)n(C2C3CC4CC2CC(O)(C4)C3)c2c1cnc1[nH]ccc12 (stereo not shown) [compound 104] | 0.38 | 0.38 | – | 0.046 | – | – | – | –
O=c1[nH]c(=O)n(C2CCN(CCN3CCOCC3)CC2)c2c1cnc1[nH]ccc12 [compound 108] | > 1 | > 1 | 0.37 | > 1 | – | – | – | –
O=c1ncn(C2CCCCC2)c2c1cnc1[nH]ccc12 [compound 13] | – | – | – | – | – | – | – | IC50 (JAK3; [9]): 1.3 µM; IC50 (Tyk2; [10]): > 1 µM; IC50 (JAK1; [11]): 0.042 µM; IC50 (JAK2; [12]): 0.56 µM
C[C@@H]1CCN(C(=O)CC2CC2)C[C@@H]1n1ccc(=O)c2cnc3[nH]ccc3c21 (racemic) [compound 8] | – | – | – | – | – | – | – | IC50 (JAK3; [9]): 0.041 µM; IC50 (Tyk2; [10]): 1.5 µM; IC50 (JAK1; [11]): 0.026 µM; IC50 (JAK2; [12]): 0.075 µM
O=c1[nH]c(=O)n(C2C3CC4CC2CC(O)(C4)C3)c2c1cnc1[nH]ccc12 (stereo not shown) [compound 105] | > 1 | > 1 | – | > 1 | – | – | – | –
O=C1NCc2cnc3[nH]ccc3c2N1C1CCN(Cc2cncs2)CC1 [compound 66] | – | – | – | – | 0.99 | 0.08 | 0.14 | –
C[C@@H]1CCN(C(=O)CC(F)(F)F)C[C@@H]1n1ccc(=O)c2cnc3[nH]ccc3c21 (racemic) [compound 9] | – | – | – | – | – | – | – | IC50 (JAK3; [9]): 0.01 µM; IC50 (Tyk2; [10]): 0.15 µM; IC50 (JAK1; [11]): 0.004 µM; IC50 (JAK2; [12]): 0.0094 µM
O=c1ccn(C2C3CC4CC2CC(O)(C4)C3)c2c1cnc1[nH]ccc12 (stereo not shown) [compound 107] | 0.41 | > 1 | 0.31 | 0.6 | – | – | – | –
O=c1[nH]c(=O)n(C2CCN(Cc3ccc(Br)s3)CC2)c2c1cnc1[nH]ccc12 [compound 89] | > 1 | > 1 | 0.011 | > 1 | – | – | – | –
O=C1NCc2cnc3[nH]ccc3c2N1C1CCNCC1 [compound 68] | – | – | – | – | > 1 | 0.5 | 2.4 | IC50 (JAK3; [5]): 9.1 µM
N#CCn1c(=O)c2cnc3[nH]ccc3c2n(C2CCCCC2)c1=O [Synthetic Example^b 137, 2-(1-Cyclohexyl-2,4-dioxo-1H-pyrrolo[3′,2′:5,6]pyrido[4,3-d]pyrimidin-3(2H,4H,7H)-yl)acetonitrile] | 0.91 | > 1 | 0.057 | > 1 | – | – | – | –
O=C1NCc2cnc3[nH]ccc3c2N1C1CCCCC1 [compound 17] | – | – | – | – | – | – | – | IC50 (JAK3; [9]): 0.69 µM; IC50 (Tyk2; [10]): 0.093 µM; IC50 (JAK2; [12]): 0.02 µM
CC(C)(C)OC(=O)N1CCC(NCCN2CCC(n3c(=O)[nH]c(=O)c4cnc5[nH]ccc5c43)CC2)CC1 [compound 109] | > 1 | > 1 | 0.92 | > 1 | – | – | – | –
C[C@@H]1CCN(C(=O)CC#N)C[C@@H]1N(C)c1ncnc2[nH]ccc12 [CP-690,550] | – | – | – | – | – | – | – | pathology of psoriasis [1]: improved the pathology; airway inflammation [2]: suppressed; pathology of rheumatoid arthritis [3]: improved the pathology; rejection [4]: suppressed rejection

— patent US9216999B2, “Substituted pyrrolo[2,3-h][1,6]naphthyridines and compositions thereof as JAK inhibitors” (priority 2011, dated 2015)
